We go through 17 compounds from patent US5603755A, “Preventive agent for fouling organisms” (Ihara Chemical Industry Co., Ltd., priority 1994, dated 1997).

One series deals with Balanus amphitrite. The series is described as follows: whole plant or invertebrate. Conditions: 0.1 ppm; cypris larvae, 20° C., 24 hours (Table 1). The protocol:
The nauplii of Balanus amphitrite, hatched in a natural sea water sterilized by filtration were tamed with a diatom feed to convert them into cypris larvae (settling stage larvae). Ten of these cypris larvae and 4 ml of a natural sea water sterilized by filtration were placed in a laboratory dish having a diameter of 3 cm. 10 mg of a present agent compound was made into 1 g of an emulsion with an emulsifier consisting of cyclohexanone and Tween 80 (a trade name of Kao Atlas Co., Ltd.), and the emulsion was diluted to a given concentration of present agent compound with an artificial sea water. 1 ml of the diluted solution was added into the above laboratory dish. The laboratory dish was allowed to stand in a thermostat of 20° C. for 24 hours, and the number of dead cypris larvae was examined. This test was repeated three times, and the mortality rate of Balanus amphitrite at a given concentration of present agent compound was determined.
A test for mortality rate was conducted in the same manner as in Test 1 except that bis(tributyltin) oxide (hereinafter referred to simply as "TBTO" in some cases) was used as a test compound in place of the present agent compound.
Tests for mortality rate were conducted in the same manner as in Tests 1-10 except that the present agent compounds were changed to those shown in Table 4.
Tests for mortality rate were conducted in the same manner as in Tests 1-10 except that the present agent compounds were changed to those shown in Table 6.
On to `CCC[CH2][Sn]([CH2]CCC)([CH2]CCC)[O][Sn]([CH2]CCC)([CH2]CCC)[CH2]CCC` [TBTO, bis(tributyltin) oxide, reference compound], for which the Mortality rate was determined as 50%.

Staying with this series, now noted: Amphibalanus amphitrite, 24 h, read-out: Mortality rate.
On to `N#CC(=C(O)c1ccccc1Cl)c1nc(-c2ccccc2)cs1` [Test 1], for which the mortality – broadly, the percentage killed – at 0.1 ppm was 100%.
Still for that read-out and setting: under `CC(C)(C)c1csc(C(C#N)=C(O)c2ccccc2Cl)n1` [Test 2] stands 100%; under `N#CC(=C(O)c1c(F)cccc1Cl)c1nc(-c2ccccc2F)cs1` [Test 7], 100%.
Same read-out and setting: under `Cc1ccccc1-c1csc(C(C#N)=C(O)c2ccccc2I)n1` [Test 4] stands 100%; under `Cc1ccccc1-c1csc(C(C#N)=C(O)c2ccccc2Br)n1` [Test 3], 100%; under `N#CC(=C(O)c1ccccc1Cl)c1nc(-c2ccccc2F)cs1` [Test 6], 100%.
Same read-out and setting: the value for `N#CC(=C(O)c1ccccc1Cl)c1nc(-c2ccccc2Cl)cs1` [Test 5] was 100%.

The series is the same for the next values; noted with them: barnacle, in vivo, 24 h.
With `CS(=O)(=O)OC(=C(C#N)c1nc(-c2ccccc2)cs1)c1ccccc1Cl` [Test 17], the “Mortality rate” value came out at 100%.
Still for that read-out and setting: the value for `CC(=O)OC(=C(C#N)c1nc(-c2ccccc2)cs1)c1ccccc1Cl` [Test 13] was 100%.
Still for that read-out and setting: the value for `N#CC(=C(OC(=O)c1ccccc1)c1ccccc1Cl)c1nc(-c2ccccc2)cs1` [Test 16] was 100%; that for `CCCCS(=O)(=O)OC(=C(C#N)c1nc(-c2ccccc2)cs1)c1ccccc1Cl` [Test 19] was 100%; that for `N#CC(=C(OS(=O)(=O)c1ccccc1)c1ccccc1Cl)c1nc(-c2ccccc2)cs1` [Test 20] was 100%.
In the case of `CCCCC(=O)OC(=C(C#N)c1nc(-c2ccccc2)cs1)c1ccccc1Cl` [Test 15], the Mortality rate stood at 100%.
Still for that read-out and setting: under `Cc1ccc(S(=O)(=O)OC(=C(C#N)c2nc(-c3ccccc3)cs2)c2ccccc2Cl)cc1` [Test 18] stands 100%; under `Cc1ccc(C(=O)OC(=C(C#N)c2nc(-c3ccccc3)cs2)c2ccccc2Cl)cc1` [Test 14], 100%.

Tested on in a further series: not listed separately
The series is described as follows: in vivo. Conditions: rat, po.
Regarding `N#CC(C(=O)c1ccccc1Cl)=C1NC(c2ccccc2)=CS1` [3-(2-chlorophenyl)-2-(4-phenyl-2,3-dihydrothiazole-2-ylidene)-3-oxopropionitrile], the median lethal dose (LD50) (in general, the dose expected to kill half of the subjects tested) is no less than 5000 mg/kg.
